Measured values: US9133197B2, “Oxidated derivatives of triazolylpurines useful as ligands of the adenosine A2A receptor and their use as medicaments” (SIGMA-TAU INDUSTRIE FARMACEUTICHE RIUNITE S.P.A., priority 2009, dated 2015)

What was measured:
[1] = molecular target: T1, human adenosine A2a receptor (Homo sapiens (Human), UniProt P29274); assay: A2a receptor competition binding assay ([3H]ZM241385); details: membranes of HEK293 cells expressing human A2a; [3H]ZM241385 2 nmol/l; Ki from IC50 by Cheng and Prusoff
Procedure: HEK293 cells, stably expressing the human adenosine A2a receptor gene (PerkinElmer, Boston, Mass., USA, cat. RBHA2AC), were grown in Falcon flasks in DMEM (Cambrex, Verviers, Belgium) supplemented with 10% FBS (Cambrex), 1 mmol/l sodium pyruvate (Sigma-Aldrich, Saint Louis, Mo., USA), 0.4 mg/ml G418 (Sigma-Aldrich) at 37° C. in a 5% CO2 atmosphere. For radioligand binding experiments, the cells were collected at 80% of confluence, in 5 mmol/l Tris-HCl (Sigma-Aldrich), pH 7.4, containing 2 mmol/l EDTA, counted, washed in PBS (Cambrex), resuspended in incubation buffer A containing 50 mmol/l Tris-HCl, pH 7.4, 10 mmol/l MgCl2 (Sigma-Aldrich) and homogenized using an Ultra Turrax T25. The membranes were centrifuged and homogenized once again and the final pellet was stored at −80° C. until use. Prior to the competition binding assay, the pellet was resuspended in buffer A at the desired protein concentration and membrane suspension was incubated with 2 U/ml adenosine deaminase (ADA, Sigma-Aldrich) for 30 min at 37° C. to remove endogenous adenosine.
The protein concentration of membrane suspension was determined using the Bradford method (Pierce, Rockford, Ill., USA) with bovine albumin as standard. Competition binding experiments were performed by incubating membranes (5-10 μg of protein/sample) with a single concentration of the A2a antagonist [^3H]ZM241385 (Biotrend, Cologne, Germany) (2 nmol/l), in the presence of various concentrations (ranging from 10^−5 to 10^−11 mol/l) of test and reference compounds in 96-well filter plates (MultiScreen system, cat. MAFBN0B10, Millipore, Billerica, Mass., USA) for one h at 4° C. in a total volume of 200 μl/well of appropriate buffer (50 mmol/l Tris-HCl, pH 7.4, 10 mmol/l MgCl2). Nonspecific binding was determined in the presence of 10 μmol/l cold ZM241385 (Tocris, Ellisville, Mo., USA). At the end of incubation, bound and free radioligands were separated by filtering the 96-well filter plates using a Millipore filtration apparatus (MultiScreenHTS vacuum manifold). Filter plates were then washed several times with ice-cold buffer (50 mmol/l Tris-HCl, pH 7.4) and filter-bound radioactivity measured using a MicroBeta counter (PerkinElmer) after addition of 30 μl/well of OptiPhase SuperMix scintillation cocktail (PerkinElmer). Four experiments were performed in triplicate by JANUS® automated workstation (Perkin Elmer).
Data were analyzed by nonlinear regression analysis with GraphPad PRISM commercial software and expressed as IC50, defined as the concentration of compounds that inhibits 50% of [^3H]ZM241385 binding. Inhibitory binding constant (Ki) values were calculated from IC50 values according to the Cheng and Prusoff equation Ki=IC50/(1+[C]/Kd), where [C] is the concentration of the radioligand and Kd its dissociation constant.

[2] = molecular target: human adenosine A1 receptor (Homo sapiens (Human), UniProt P30542); assay: A1 receptor competition binding assay ([3H]DPCPX); details: membranes of CHO-K1 cells expressing human A1; [3H]DPCPX 1.7 nmol/l; Ki from IC50 by Cheng and Prusoff
Procedure: Competition binding experiments have been performed incubating membranes from CHO-K1 cells stably transfected with the human adenosine A1 receptor (cat. ES-010-M400UA, Perkin Elmer, Boston, Mass., USA) (5-10 μg of protein/sample) with a single concentration of [3H]DPCPX (1.7 nmol/l) (Perkin Elmer), in the presence of various concentrations (ranging from 10^−5 to 10^−10 M) of cold DPCPX, ST4206 and ST4208 in 96-well filter plates (MultiScreen system, cat #MAFBN0B10, Millipore, Billerica, Mass., USA) for 60 min at 25° C. in a total volume of 200 μL/well of 25 mmol/l Hepes, 5 mmol/L MgCl2, 1 mmol/l CaCl2, 100 mmol/L NaCl, pH 7.4 (all from Sigma-Aldrich). Non-specific binding has been determined in the presence of 250 μmol/l of cold DPCPX (8-cyclopentyl-1,3-dipropylxanthine, Sigma-Aldrich). At the end of incubation, bound and free radioligands have been separated by filtering the 96-well filter plates using a Millipore filtration apparatus (MultiscreenHTS vacuum manifold). Filter plates have been washed several times with ice-cold buffer (50 mmol/l Tris-HCl, pH 7.4) and filter-bound radioactivity measured using a MicroBeta counter (PerkinElmer) after addition of 30 μL/well of OptiPhase SuperMix scintillation cocktail (PerkinElmer).
Data have been analyzed using nonlinear regression with GraphPad PRISM commercial software. Data will be expressed as test compound concentration causing a half maximal inhibition of control values (IC50). Inhibitory binding constant (Ki) values will be calculated from IC50 values, according to the Cheng and Prusoff equation K1=IC50/(1+[C]/Kd), where [C] is the concentration of the radioligand and Kd its dissociation constant.

[3] = molecular target: T1, human adenosine A2a receptor; assay: Inhibition of NECA-induced cAMP accumulation in HEK 293 cells; assay type: cell-based; details: HEK 293 cells expressing human A2a; 100 nmol/l NECA; mean of four experiments
Procedure: The compounds of the present invention were tested to assess their capacity to inhibit cAMP accumulation induced by the A2A agonist 5′-N-ethylcarboxamidoadenosine (NECA).
cAMP quantitative determination was performed with an enzyme immunoassay system (cat. RPN2255, Amersham Biosciences) according to manufacturer's instructions. HEK 293 cells, stably expressing the human adenosine A2a receptor gene (PerkinElmer, Boston, Mass., USA, cat. RBHA2AC), were grown in Falcon flasks in DMEM (Cambrex, Verviers, Belgium) supplemented with 10% FBS (Cambrex), 1 mmol/l sodium pyruvate (Sigma-Aldrich, St. Louis, Mo., USA), and 0.4 mg/ml G418 (Sigma-Aldrich) at 37° C. in a 5% CO2 atmosphere. Cells were plated on 96-well dishes at a concentration of 10^3 cells/well 48 hours before test compound exposure. Before cell stimulation with the compounds, cells were treated for 10 min at 37° C. with 0.5 mmol/l of the phosphodiesterase inhibitor Ro 20-1724 (Sigma-Aldrich) and with 2 U/ml of adenosine deaminase (ADA, Sigma-Aldrich). Medium was then changed with fresh medium containing scalar concentrations of test compounds (10^−10-10^−4 mol/l) at 37° C. and, after 10 min, 100 nmol/l NECA was added. cAMP was extracted 20 min after and quantified.
Data were analyzed by nonlinear regression analysis with GraphPad PRISM commercial software. Test compound concentrations causing a half maximal inhibition of control values (IC50 calculated by GraphPad Prism software) was reported (mean±SEM of four independent experiments).

[4] = system: battery of 51 different receptors; assay: Selectivity profile: affinity toward a battery of 51 different receptors; assay type: binding, human; details: tested at 10 μM
Text: The majority of the 51 assays were human recombinant receptors of the following types: adenosine, adrenergic, cannabinoid, dopamine, GABA, histamine, melatonin, muscarinic, prostanoid and serotonin receptors belonging to non peptide receptors family; angiotensin-II, bradychinin, chemokines, cholecistokinin, endothelin, galanin, melacortin, neurokinin, neuropeptide Y, neurotensin, opioid and opioid like, somatostatin, vasoactive intestinal peptide and vasopressin receptors belonging to peptide receptors family; Ca^2+ channel, K^+ channel and Na^+ channel belonging to the ion channel family and dopamine, norepinephrine and serotonin belonging to the amine transporters receptors family.” These three compounds were tested at a concentration of 10 μM.

[5] = system: haloperidol-induced catalepsy in CD1 mice; assay: Haloperidol-induced catalepsy mice model; assay type: in vivo; details: oral 10, 20 or 40 mg/kg, haloperidol 2 mg/kg i.p., AUC of catalepsy time over 7 h
Procedure: Haloperidol (2 mg/kg) was injected i.p. to CD1 mice 2.5 h before oral administration of ST3932 or ST4206. The latter were administered at doses of 10, 20 or 40 mg/kg.
Then, each CD1 mouse was gently placed by its forepaws on a wire at a height of 4.5 cm. Catalepsy was measured as the time (expressed in seconds) necessary for the animal to step down with at least one forepaw, with an end point of 60 seconds, time after which the mouse was gently removed from the wire. Then, catalepsy was scored every 60 min for seven h.
All data were expressed both as individual and mean values, plus or minus standard error (Mean±SEM) of catalepsy time in seconds. Statistical analysis was performed using sigma stat program. After calculation of AUC throughout 7 hours, the one-way ANOVA followed by Dunnett's test were used.

6-OHDA lesioned rats = assay: Enhancement of L-DOPA antiparkinsonian activity, 6-OHDA lesioned rats; assay type: in vivo, Rats (Sprague Dawley); details: 10, 20, 40 mg/kg with threshold dose of L-Dopa (6 mg benserazide + 3 mg L-DOPA); 6-OHDA rats
Procedure: Rats (Sprague Dawley) under chloral hydrate (400 mg/kg) anaesthesia were placed in a Kopf stereotaxic apparatus. Through a stainless steel cannula, 6-OHDA was injected at a rate of 1 μl/min into the left medial forebrain bundle at coordinates A=−2.2, L=+1.5 and V=−7.8, according to the Pellegrino atlas. All rats, including shams, were treated with desipramine (10 mg/kg) 10 min before anaesthesia to prevent damage to noradrenergic neurons.
Two weeks after the 6-OHDA injection, all animals were tested for their contra lateral rotation capacity in response to 30 mg/kg i.p. benserazide followed by 50 mg/kg i.p. of L-Dopa 30 min later. Rats not showing at least 200 contra lateral rotations within the 3 h testing period were eliminated from the study. One week after this test, selected animals were randomized to be enrolled in three studies. Each study involved seven groups of eight animals.
Tested compounds (ST3829, ST3932 and ST4206) were dissolved in a solution containing 10% sucrose and 0.3% Tween 80 in sterile water in order to obtain three different dosage forms (i.e., 10, 20 and 40 mg/kg).
In groups 5, 6 and 7 benserazide was administered first, followed by the tested compound 25 min after and finally by L-DOPA 5 min later.

Sequence of human adenosine A1 receptor (P30542 whole entry): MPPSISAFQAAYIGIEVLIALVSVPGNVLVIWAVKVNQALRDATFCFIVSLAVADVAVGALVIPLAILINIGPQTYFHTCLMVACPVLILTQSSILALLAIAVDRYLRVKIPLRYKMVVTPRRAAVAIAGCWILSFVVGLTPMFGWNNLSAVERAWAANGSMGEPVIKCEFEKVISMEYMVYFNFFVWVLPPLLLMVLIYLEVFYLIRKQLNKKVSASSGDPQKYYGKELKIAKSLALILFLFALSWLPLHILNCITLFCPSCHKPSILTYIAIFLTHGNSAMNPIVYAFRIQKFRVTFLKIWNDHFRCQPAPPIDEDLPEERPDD
T1 sequence (P29274 whole entry): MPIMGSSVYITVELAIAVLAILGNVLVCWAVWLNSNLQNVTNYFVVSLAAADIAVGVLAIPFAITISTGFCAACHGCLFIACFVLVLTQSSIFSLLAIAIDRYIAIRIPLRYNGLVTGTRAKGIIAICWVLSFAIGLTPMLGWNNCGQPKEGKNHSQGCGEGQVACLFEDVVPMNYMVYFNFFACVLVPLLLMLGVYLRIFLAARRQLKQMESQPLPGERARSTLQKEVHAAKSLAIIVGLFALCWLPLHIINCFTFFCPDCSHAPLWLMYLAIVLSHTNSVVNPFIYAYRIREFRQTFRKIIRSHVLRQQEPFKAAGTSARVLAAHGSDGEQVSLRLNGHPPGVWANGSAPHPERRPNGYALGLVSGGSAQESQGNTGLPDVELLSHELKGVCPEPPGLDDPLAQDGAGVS

Row | Structure (SMILES) | Ki [1] [nM] | Ki [2] [nM] | IC50 [3] [nM] | affinity toward 51 receptors [4] | antagonism of haloperidol-induced catalepsy [5] | contralateral turning behaviour induced by L-Dopa (6-OHDA lesioned rats)
1 | Cn1c(-n2nccn2)nc2c(N)nc(CCCCO)nc21 [Example 1, 4-(6-Amino-9-methyl-8[1,2,3]triazol-2-yl-9H-purin-2-yl)butan-1-ol] | 53 | 51 | 2120 | none of them demonstrated any substantial affinity |  | 
2 | CC(O)CCc1nc(N)c2nc(-n3nccn3)n(C)c2n1 (stereo not drawn) [Example 2, 4-(6-Amino-9-methyl-8[1,2,3]triazol-2-yl-9H-purin-2-yl)butan-2-ol] | 8 | 27 | 450 | none of them demonstrated any substantial affinity | significantly antagonized haloperidol-induced catalepsy in a dose-dependent manner | increased the contralateral turning behaviour induced by L-Dopa
3 | C[C@H](O)CCc1nc(N)c2nc(-n3nccn3)n(C)c2n1 [Example 3, (S)-4-(6-Amino-9-methyl-8-[1,2,3]triazol-2-yl-9H-purin-2-yl)butan-2-ol] | 19 |  | 260 |  |  | 
4 | C[C@@H](O)CCc1nc(N)c2nc(-n3nccn3)n(C)c2n1 [Example 4, (R)-4-(6-Amino-9-methyl-8-[1,2,3]triazol-2-yl-9H-purin-2-yl)butan-2-ol] | 8 |  | 420 |  |  | 
5 | CCCC(O)c1nc(N)c2nc(-n3nccn3)n(C)c2n1 (stereo not drawn) [Example 5, 1-(6-Amino-9-methyl-8-[1,2,3]triazol-2-yl-9H-purin-2-yl)butan-1-ol] | 22 | 120 | 2320 | none of them demonstrated any substantial affinity |  | efficacy of ST3829 at increasing the number of contralateral rotation

Second part, led by results:

Row | Ki [1] [nM] | Ki [2] [nM] | IC50 [3] [nM] | Structure (SMILES) | affinity toward 51 receptors [4] | antagonism of haloperidol-induced catalepsy [5] | contralateral turning behaviour induced by L-Dopa (6-OHDA lesioned rats)
6 | 19 | 216 | 2920 | CCCC(=O)c1nc(N)c2nc(-n3nccn3)n(C)c2n1 [Example 6, 1-(6-Amino-9-methyl-8-[1,2,3]triazol-2-yl-9H-purin-2-yl)-butan-1-one] |  |  | 
7 | 12 | 197 | 990 | CC(=O)CCc1nc(N)c2nc(-n3nccn3)n(C)c2n1 [Example 7, 4-(6-Amino-9-methyl-8[1,2,3]triazol-2-yl-9H-purin-2-yl)-butan-2-one] |  | significantly antagonized haloperidol-induced catalepsy in a dose-dependent manner | increased the contralateral turning behaviour induced by L-Dopa
